Data set [1] is described as follows: Drying of selected materials under vacuum at 45° C., solid form checked by XRPD. In kind it is physicochemical. The protocol: (§1) XRPD patterns were collected with a PANalytical X'Pert PRO MPD or Empyrean diffractometer using an incident beam of Cu radiation produced using an Optix long, fine-focus source. An elliptically graded multilayer mirror was used to focus Cu Ku X-ray radiation through the specimen and onto the detector. Prior to the analysis, a silicon specimen (NIST SRM 640e) was analyzed to verify the observed position of the Si (111) peak is consistent with the NIST-certified position. A specimen of the sample was sandwiched between 3-μm-thick films and analyzed in transmission geometry. A beam-stop, short antiscatter extension, and antiscatter knife-edge were used to minimize the background generated by air. Soller slits for the incident and diffracted beams were used to minimize broadening from axial divergence. Diffraction patterns were collected using a scanning position-sensitive detector (X'Celerator) located 240 mm from the specimen and Data Collector software v. 5.5.

The nature of data set [2]: Stable form and hydrate screen via slurry-trituration experiments. In kind it is physicochemical. To be noted: anh. EtOH, 55° C., 7 d, brown suspension. The method, then:
Slurry triburation experiments target the stable forms, including stable solvates and hydrates.
The slurry-trituration experiments were conducted by stirring solids of Compound I in specified solvents and solvent mixtures at various temperatures for 7 days (elevated temperature) or 14-18 days (ambient and sub-ambient temperatures). A summary of experimental conditions and results is detailed in Table 13.
as §1

Data set [3] is described as follows: Polymorph screen (evaporation, cooling, slurry, solvent/anti-solvent). In kind it is physicochemical. To be noted: EtOAc/HFIPA (36:64), stirred at 60° C. 1 d, FC to ice/water bath, FE w/N2 purge. The source says:
Solids of Compound I unless noted otherwise, was used as the starting material. Materials produced in the study were utilized for selected experiments.
Solutions of starting material were allowed to partially evaporate or evaporate to dryness at ambient or elevated temperature from open vials for fast evaporation (FE) or from vials covered with aluminum foil with pin holes for slow evaporation (SE). Prior to evaporation, solutions were filtered at ambient or elevated temperature using 0.2 μm nylon filters.
Solutions of starting material were prepared in specified solvents at elevated temperature using a hot plate for heating. These were typically hot-filtered through a 0.2 μm nylon filter into warm receiving vials. […]
XRPD patterns were collected with a PANalytical X'Pert PRO MPD or Empyrean diffractometer using an incident beam of Cu radiation produced using an Optix long, fine-focus source. […] Prior to the analysis, a silicon specimen (NIST SRM 640e) was analyzed to verify the observed position of the Si (111) peak is consistent with the NIST-certified position. A specimen of the sample was sandwiched between 3-μm-thick films and analyzed in transmission geometry. […]

In data set [4] the target is T1, glucokinase (Homo sapiens, UniProt P35557).
T1 sequence (P35557 1-465): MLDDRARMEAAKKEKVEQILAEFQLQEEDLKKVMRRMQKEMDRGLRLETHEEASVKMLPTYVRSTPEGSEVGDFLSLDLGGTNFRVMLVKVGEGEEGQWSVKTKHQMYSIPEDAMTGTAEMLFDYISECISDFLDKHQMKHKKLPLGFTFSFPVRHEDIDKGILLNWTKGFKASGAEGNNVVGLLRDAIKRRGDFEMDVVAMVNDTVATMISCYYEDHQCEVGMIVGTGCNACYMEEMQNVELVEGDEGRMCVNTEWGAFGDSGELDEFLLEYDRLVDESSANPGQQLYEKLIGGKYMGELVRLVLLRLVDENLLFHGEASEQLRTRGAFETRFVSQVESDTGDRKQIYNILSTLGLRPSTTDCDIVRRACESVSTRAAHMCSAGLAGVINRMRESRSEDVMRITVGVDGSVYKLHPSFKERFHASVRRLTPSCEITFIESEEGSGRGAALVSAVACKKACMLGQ
To be noted: cited from earlier work.

Data set [5] can be described thus: Competitive slurry experiment in acetone among Form A, Form D, Form B and Form E, XRPD. In kind it is physicochemical. To be noted: for XRPD Results after competitive slurry of Forms A, D, B, E: acetone pre-saturated with Form A, 7 d, solids analyzed wet.
Source text: At each condition, similar amounts of solids from the four forms/materials were slurried in pre-saturated solutions at the examined temperature conditions for 7 days; solids were then isolated and analyzed wet by XRPD.
as §1

Consider nine compounds from US12709603B2, “Crystalline forms of {2-[3-cyclohexyl-3-(trans-4-propoxy-cyclohexyl)-ureido]-thiazol-5-ylsulfanyl}-acetic acid and uses thereof” (vTv Therapeutics LLC, priority 2020, dated 2026).

“Also recorded” adds a separate entry of the source.

In the case of `CCCO[C@H]1CC[C@H](N(C(=O)Nc2ncc(SCC(=O)O)s2)C2CCCCC2)CC1` [Compound I Form E + minor Form A, {2-[3-cyclohexyl-3-(trans-4-propoxy-cyclohexyl)-ureido]-thiazol-5-ylsulfanyl}-acetic acid], in data set [1] (vacuum/45° C./1 d), the “XRPD Results after drying” value is on record as “Compound I Form B +”.

`CCCO[C@H]1CC[C@H](N(C(=O)Nc2ncc(SCC(=O)O)s2)C2CCCCC2)CC1` [Form I, {2-[3-cyclohexyl-3-(trans-4-propoxy-cyclohexyl)-ureido]-thiazol-5-ylsulfanyl}-acetic acid]: the “Solid form change upon drying / desolvation” value in data set [1] was “converts to Form E or solids similar to Form E upon drying”. Also, the “XRPD Results after drying” value in data set [1] (vacuum/45° C./1 d, listed as Compound I Form I) was “Compound I Form B”.

In the case of `CCCO[C@H]1CC[C@H](N(C(=O)Nc2ncc(SCC(=O)O)s2)C2CCCCC2)CC1` [Compound I, {2-[3-cyclohexyl-3-(trans-4-propoxy-cyclohexyl)-ureido]-thiazol-5-ylsulfanyl}-acetic acid], the “XRPD Result after slurry-trituration” value in data set [2] is on record as “decomposed”. Besides, in data set [3], the “XRPD Result after polymorph screen experiment” value was “decomposed”. In data set [4] (oral, liver selective glucokinase activator), the Glycemic control entry is on record as “improves glycemic control”. The “Adverse effects (hypoglycemia, dyslipidemia/increased TG, liver glycogen and TG, loss of efficacy)” value in data set [4] (therapeutically relevant doses, compared with other GK activators) was “does not cause similar adversarial effects; also recorded: may not induce hypoglycemia, dyslipidemia, or pathological increases of glycogen and TG in the liver”.

For the compound `CCCO[C@H]1CC[C@H](N(C(=O)Nc2ncc(SCC(=O)O)s2)C2CCCCC2)CC1` [Form H, {2-[3-cyclohexyl-3-(trans-4-propoxy-cyclohexyl)-ureido]-thiazol-5-ylsulfanyl}-acetic acid], the “Solid form change upon drying / desolvation” value in data set [1] is recorded as “become disordered upon drying”.

As for `CCCO[C@H]1CC[C@H](N(C(=O)Nc2ncc(SCC(=O)O)s2)C2CCCCC2)CC1` [Form C, {2-[3-cyclohexyl-3-(trans-4-propoxy-cyclohexyl)-ureido]-thiazol-5-ylsulfanyl}-acetic acid], the “Solid form change upon drying / desolvation” value in data set [1] is given as “desolvates into Form D”. Besides, the “XRPD Results after drying” value is listed as “Compound I Form D” in data set [1] (vacuum/45° C./1 h) and “Compound I Form D ±” in data set [1] (vacuum/45° C./1 d, listed as Compound I Form C).

On to `CCCO[C@H]1CC[C@H](N(C(=O)Nc2ncc(SCC(=O)O)s2)C2CCCCC2)CC1` [Form G, {2-[3-cyclohexyl-3-(trans-4-propoxy-cyclohexyl)-ureido]-thiazol-5-ylsulfanyl}-acetic acid], for which the “Solid form change upon drying / desolvation” value in data set [1] is recorded as “become disordered upon drying”. In data set [1] (vacuum/45° C./3 d, listed as Compound I Form G), the “XRPD Results after drying” value is “disordered”.

In the case of `CCCO[C@H]1CC[C@H](N(C(=O)Nc2ncc(SCC(=O)O)s2)C2CCCCC2)CC1` [Compound I Material G, {2-[3-cyclohexyl-3-(trans-4-propoxy-cyclohexyl)-ureido]-thiazol-5-ylsulfanyl}-acetic acid], the “XRPD Results after drying” value in data set [1] (vacuum/45° C./1 d) was “disordered”.

For `CCCO[C@H]1CC[C@H](N(C(=O)Nc2ncc(SCC(=O)O)s2)C2CCCCC2)CC1` [Form A, {2-[3-cyclohexyl-3-(trans-4-propoxy-cyclohexyl)-ureido]-thiazol-5-ylsulfanyl}-acetic acid], the “XRPD Results after competitive slurry of Forms A, D, B, E” value in data set [5] (2-8° C.), in data set [5] (45° C.) and in data set [5] (RT) was “Form A” in each case. Further, the “Relative stability among anhydrous forms A, B, D, E” value in data set [5] (within 2-8° C. to 45° C., based on competitive slurries) was “likely the most stable form”.

Turning to `CCCO[C@H]1CC[C@H](N(C(=O)Nc2ncc(SCC(=O)O)s2)C2CCCCC2)CC1` [Form F, {2-[3-cyclohexyl-3-(trans-4-propoxy-cyclohexyl)-ureido]-thiazol-5-ylsulfanyl}-acetic acid], in data set [1], the “Solid form change upon drying / desolvation” value is “converts to Form D upon drying”. The “XRPD Results after drying” value in data set [1] (vacuum/45° C./3 d, listed as Compound I Form F) is listed as “Compound I Form D”.
